We go through 1 molecule from PMC9321742 (Viruses, 2022).

This assay deals with SARS-CoV-2 B.1 (D614G) wild-type. The class given is cell-based.

Each structure is given as a SMILES string. “And” between values parts separate entries of the source, which are not always exact repeats. Equal values may be shown once.

Regarding `O=c1nc(NO)ccn1[C@@H]1O[C@H](CO)[C@@H](O)[C@H]1O` [EIDD-1931], the “Increase in antiviral activity by the P-gp inhibitor” value is “negligible”. Further, the IC50 (read-out: IC50 WT Mean ± SD) is 1100 nM and 1500 nM.
